Reference: patent US7951796B2 (priority 2005, dated 2011)

Legend:
[1] = tested on: cellular cholesterol in ScN2a cells; format: cell-based, mouse
[2] = tested on: RML scrapie prion infection; format: in vivo, mouse (transgene TG 20); details: TG 20 mice

SMILES	cholesterol distribution (filipin staining) [1]	time to death of prion disease ([2]; intracerebral RML scrapie, 2 mg per mouse by gavage three times weekly for eight weeks, untreated control 92±4 days)	lengthening of the survival time ([2]; versus untreated control, Student's t test p<0.0001)
CCN(CC)CCCC(C)Nc1c2ccc(Cl)cc2nc2ccc(OC)cc12 (stereo not shown) [Quinacrin, reference compound]	redistribution was revealed to intracellular compartments	–	–
COc1ccc2nc3cc(Cl)ccc3c(NCCCCN3CCN(CCCN4c5ccccc5CCc5ccccc54)CC3)c2c1 [compound (10), (6-chlor-2-methoxy-acridine-9-yl)-(4-{4-[3-(10,11-dihydro-dibenzo[b,f]azepine-5-yl)-propyl]-piperazine-1-yl}-butyl)-amine]	redistribution was revealed to intracellular compartments	100 ± 5 days	10%
